Results from patent publication US20090304692A1, “TRIAZINE COMPOUNDS AS PI3 KINASE AND MTOR INHIBITORS” (Wyeth, priority 2008, published 2009).
“And” between values parts separate entries of the source, which are not always exact repeats. Identical values can stand only once. Counter-ions that a name gives are not always drawn. Like-named read-outs stand apart in the source and are kept apart here.

Experiments:
[1] = target: Human mTOR (FLAG-TOR) (Homo sapiens, UniProt P42345); assay: mTOR kinase assay (DELFIA format, purified enzyme); assay type: biochemical
[2] = test system: human prostate PC3-mm2 tumor cell line; assay: In vitro cell culture growth assay (MTS), PC3-mm2; assay type: cell-based; conditions: Homo sapiens, PC3MM2, 72 h
[3] = target: PI3K-γ (Homo sapiens, UniProt P48736); assay: PI3K-gamma fluorescence polarization assay; conditions: read-out: IC50 PI3Kγ
[4] = target: PI3K-α (Homo sapiens, UniProt P42336); assay: PI3K-alpha fluorescence polarization assay; conditions: read-out: IC50 PI3Kα
[5] = test system: human breast MDA-MB-361 tumor cell line; assay: In vitro cell culture growth assay (MTS), MDA-MB-361; assay type: cell-based; conditions: Homo sapiens, MDA-MB-361, 72 h
[6] = MTS cell growth assay, three days after drug treatment, PC3-mm2 cells, read-out: IC50 PC3-mm2
[7] = MTS cell growth assay, three days after drug treatment, read-out: IC50 PC3-mm2
[8] = MTS cell growth assay, three days after drug treatment, MDA-MB-361 cells, read-out: IC50 MDA-MB-361
[9] = MTS cell growth assay, three days after drug treatment, read-out: IC50 MDA-MB-361
[10] = read-out: IC50 PC3-mm2, MTS cell growth assay, three days after drug treatment
[11] = read-out: IC50 MDA-MB-361, MTS cell growth assay, three days after drug treatment

PI3K-α, sequence (P42336 whole entry, species assumed): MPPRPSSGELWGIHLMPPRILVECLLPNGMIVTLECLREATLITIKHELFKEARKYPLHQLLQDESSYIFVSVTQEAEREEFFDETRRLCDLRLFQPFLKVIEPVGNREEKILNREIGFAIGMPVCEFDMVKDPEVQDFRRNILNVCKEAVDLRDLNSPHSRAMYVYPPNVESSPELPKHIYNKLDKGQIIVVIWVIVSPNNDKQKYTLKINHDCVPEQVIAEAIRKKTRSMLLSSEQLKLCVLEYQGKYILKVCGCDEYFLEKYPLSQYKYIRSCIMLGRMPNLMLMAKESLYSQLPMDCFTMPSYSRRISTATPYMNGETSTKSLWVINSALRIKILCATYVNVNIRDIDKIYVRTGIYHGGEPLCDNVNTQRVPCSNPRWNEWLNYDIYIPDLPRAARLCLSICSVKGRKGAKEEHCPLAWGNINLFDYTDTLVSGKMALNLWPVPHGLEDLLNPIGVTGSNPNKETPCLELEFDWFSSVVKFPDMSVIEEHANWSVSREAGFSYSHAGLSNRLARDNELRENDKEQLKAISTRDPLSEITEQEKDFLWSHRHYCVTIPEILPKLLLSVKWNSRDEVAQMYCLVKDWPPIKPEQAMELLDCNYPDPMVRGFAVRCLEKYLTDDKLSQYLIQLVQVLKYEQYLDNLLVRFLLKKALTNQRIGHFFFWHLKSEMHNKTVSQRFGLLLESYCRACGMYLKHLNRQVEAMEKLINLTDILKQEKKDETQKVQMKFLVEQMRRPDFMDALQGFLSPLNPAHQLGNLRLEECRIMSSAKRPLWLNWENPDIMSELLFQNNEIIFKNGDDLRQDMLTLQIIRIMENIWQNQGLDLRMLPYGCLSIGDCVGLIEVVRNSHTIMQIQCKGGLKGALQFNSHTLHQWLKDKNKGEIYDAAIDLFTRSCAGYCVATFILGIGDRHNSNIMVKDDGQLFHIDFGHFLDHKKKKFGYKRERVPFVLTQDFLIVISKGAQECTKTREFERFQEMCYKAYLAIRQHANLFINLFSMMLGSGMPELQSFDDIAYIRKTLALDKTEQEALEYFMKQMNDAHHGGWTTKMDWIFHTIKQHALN
PI3K-α, sequence (P27986 whole entry partner, species assumed): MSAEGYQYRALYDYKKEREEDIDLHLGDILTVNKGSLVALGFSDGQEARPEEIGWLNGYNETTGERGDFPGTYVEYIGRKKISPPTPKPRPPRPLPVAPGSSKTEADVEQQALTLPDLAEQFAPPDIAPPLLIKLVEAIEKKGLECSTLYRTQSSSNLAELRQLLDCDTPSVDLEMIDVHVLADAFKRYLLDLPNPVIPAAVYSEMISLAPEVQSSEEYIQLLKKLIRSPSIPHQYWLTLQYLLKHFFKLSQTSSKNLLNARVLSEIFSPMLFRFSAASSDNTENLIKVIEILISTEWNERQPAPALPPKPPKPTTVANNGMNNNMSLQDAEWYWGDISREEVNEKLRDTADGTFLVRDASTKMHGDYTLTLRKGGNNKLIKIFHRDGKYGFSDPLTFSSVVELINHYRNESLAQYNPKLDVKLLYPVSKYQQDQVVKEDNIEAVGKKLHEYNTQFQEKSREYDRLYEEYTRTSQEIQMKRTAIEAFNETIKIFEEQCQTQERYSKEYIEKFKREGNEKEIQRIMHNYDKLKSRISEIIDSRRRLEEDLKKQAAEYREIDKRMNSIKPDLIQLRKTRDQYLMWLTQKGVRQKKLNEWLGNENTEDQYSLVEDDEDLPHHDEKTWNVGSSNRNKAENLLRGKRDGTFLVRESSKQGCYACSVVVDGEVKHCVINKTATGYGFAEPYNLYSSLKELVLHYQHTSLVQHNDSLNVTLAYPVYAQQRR
Human mTOR (FLAG-TOR), sequence (P42345 1360-2549 limits assumed): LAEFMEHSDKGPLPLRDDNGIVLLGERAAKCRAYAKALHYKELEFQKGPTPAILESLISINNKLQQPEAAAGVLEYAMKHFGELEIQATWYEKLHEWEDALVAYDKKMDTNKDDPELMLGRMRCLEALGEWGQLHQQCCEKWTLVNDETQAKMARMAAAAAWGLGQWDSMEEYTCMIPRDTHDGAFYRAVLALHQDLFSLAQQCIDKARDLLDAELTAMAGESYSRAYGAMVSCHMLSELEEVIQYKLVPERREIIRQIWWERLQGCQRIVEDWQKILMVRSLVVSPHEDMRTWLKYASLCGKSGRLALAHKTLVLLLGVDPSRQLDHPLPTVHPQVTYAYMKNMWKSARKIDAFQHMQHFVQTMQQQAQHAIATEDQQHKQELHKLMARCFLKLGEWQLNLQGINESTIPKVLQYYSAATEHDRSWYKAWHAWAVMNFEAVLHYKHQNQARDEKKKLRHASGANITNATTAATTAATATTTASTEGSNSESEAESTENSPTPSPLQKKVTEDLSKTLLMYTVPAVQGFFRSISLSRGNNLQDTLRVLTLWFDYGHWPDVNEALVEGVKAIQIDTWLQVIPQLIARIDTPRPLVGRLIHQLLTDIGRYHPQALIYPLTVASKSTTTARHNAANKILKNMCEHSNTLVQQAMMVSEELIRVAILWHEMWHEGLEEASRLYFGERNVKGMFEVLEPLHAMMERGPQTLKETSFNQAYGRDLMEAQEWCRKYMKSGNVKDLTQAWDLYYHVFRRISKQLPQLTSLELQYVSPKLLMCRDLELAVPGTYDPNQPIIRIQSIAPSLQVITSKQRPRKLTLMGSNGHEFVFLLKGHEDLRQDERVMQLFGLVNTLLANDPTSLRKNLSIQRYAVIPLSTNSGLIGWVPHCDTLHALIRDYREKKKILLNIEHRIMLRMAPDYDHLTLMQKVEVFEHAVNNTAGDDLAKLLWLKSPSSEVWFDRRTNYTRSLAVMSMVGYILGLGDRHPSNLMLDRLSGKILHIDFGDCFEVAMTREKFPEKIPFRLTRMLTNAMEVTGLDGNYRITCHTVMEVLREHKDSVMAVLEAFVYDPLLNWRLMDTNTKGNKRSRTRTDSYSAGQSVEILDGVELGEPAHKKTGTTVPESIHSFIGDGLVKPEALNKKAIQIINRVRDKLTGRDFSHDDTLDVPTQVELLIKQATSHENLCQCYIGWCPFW
PI3K-γ, sequence (P48736 whole entry, species assumed): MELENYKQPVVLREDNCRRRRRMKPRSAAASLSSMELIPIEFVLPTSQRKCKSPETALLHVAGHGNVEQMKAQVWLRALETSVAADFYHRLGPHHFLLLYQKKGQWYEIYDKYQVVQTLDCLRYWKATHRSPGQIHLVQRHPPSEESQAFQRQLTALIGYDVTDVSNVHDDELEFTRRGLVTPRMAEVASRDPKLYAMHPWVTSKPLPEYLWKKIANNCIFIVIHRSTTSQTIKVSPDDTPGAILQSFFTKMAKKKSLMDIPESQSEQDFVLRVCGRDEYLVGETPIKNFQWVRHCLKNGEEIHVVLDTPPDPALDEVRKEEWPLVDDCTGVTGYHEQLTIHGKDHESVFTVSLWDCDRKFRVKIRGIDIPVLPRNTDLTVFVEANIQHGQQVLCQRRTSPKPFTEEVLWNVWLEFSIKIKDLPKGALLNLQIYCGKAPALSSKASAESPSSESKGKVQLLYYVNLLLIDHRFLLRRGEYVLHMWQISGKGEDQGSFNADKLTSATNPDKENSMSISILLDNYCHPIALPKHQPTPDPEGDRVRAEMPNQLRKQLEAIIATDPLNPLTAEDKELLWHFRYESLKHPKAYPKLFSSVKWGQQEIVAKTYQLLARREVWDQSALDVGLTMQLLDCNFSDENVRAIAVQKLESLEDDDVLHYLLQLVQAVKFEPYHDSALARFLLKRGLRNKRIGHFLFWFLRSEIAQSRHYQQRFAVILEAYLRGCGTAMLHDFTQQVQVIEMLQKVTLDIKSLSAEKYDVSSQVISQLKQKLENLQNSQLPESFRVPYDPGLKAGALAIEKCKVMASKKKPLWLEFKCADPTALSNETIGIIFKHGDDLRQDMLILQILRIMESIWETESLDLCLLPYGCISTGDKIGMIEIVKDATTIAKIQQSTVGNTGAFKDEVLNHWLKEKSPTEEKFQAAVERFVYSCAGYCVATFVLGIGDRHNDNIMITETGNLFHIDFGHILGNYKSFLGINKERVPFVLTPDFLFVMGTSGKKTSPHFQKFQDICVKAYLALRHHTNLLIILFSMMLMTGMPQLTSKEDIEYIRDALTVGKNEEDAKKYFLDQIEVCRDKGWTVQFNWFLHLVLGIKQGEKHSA

Row | IC50 ([1]; read-out: IC50 mTOR) | IC50 [2, 7] | IC50 [3] | IC50 [4] | IC50 [5, 9] | SMILES | also measured
1 | 1.6 nM | 95 nM | 52 nM | 13 nM | 116 nM | O=C(Nc1ccc(-c2nc(N3CCOCC3)nc(N3CC4CCC(C3)O4)n2)cc1)Nc1cccnc1 [Example 47, 1-{4-[4-morpholin-4-yl-6-(8-oxa-3-azabicyclo[3.2.1]oct-3-yl)-1,3,5-triazin-2-yl]phenyl}-3-pyridin-3-ylurea] | –
2 | 10 nM and 8.9 nM | 79 nM | 21 nM | 3 nM | 84 nM | Cc1cc(NC(=O)Nc2ccc(-c3nc(N4CCOCC4)nc(N4CCOCC4)n3)cc2)ccn1 [Example 49, 1-[4-(4,6-dimorpholin-4-yl-1,3,5-triazin-2-yl)phenyl]-3-(2-methylpyridin-4-yl)urea] | –
3 | 2 nM | – | 21 nM | 1 nM | – | O=C(Nc1ccc(CCO)cc1)Nc1ccc(-c2nc(N3CCOCC3)nc(N3CCOCC3)n2)cc1 [Example 50, 1-[4-(4,6-dimorpholin-4-yl-1,3,5-triazin-2-yl)phenyl]-3-[4-(2-hydroxyethyl)phenyl]urea] | IC50 [2, 10]: 39 nM; IC50 [5, 11]: 36 nM
4 | 1.9 nM | < 30 nM | 15 nM | 1 nM | < 30 nM | O=C(Nc1ccc(CO)cc1)Nc1ccc(-c2nc(N3CCOCC3)nc(N3CCOCC3)n2)cc1 [Example 51, 1-[4-(4,6-dimorpholin-4-yl-1,3,5-triazin-2-yl)phenyl]-3-[4-(hydroxymethyl)phenyl]urea] | –
5 | 24 nM and 18 nM | 987 nM | 403 nM | 45 nM | 662 nM | O=C(Nc1ccc(-c2nc(N3CCOCC3)nc(N3CCOCC3)n2)cc1)Nc1ccc(C(F)(F)F)cc1 [Example 53, 1-[4-(4,6-dimorpholin-4-yl-1,3,5-triazin-2-yl)phenyl]-3-[4-(trifluoromethyl)phenyl]urea] | –
6 | 4.75 nM | 214 nM | 88 nM | 10 nM | 133 nM | O=C(Nc1ccc(O)cc1)Nc1ccc(-c2nc(N3CCOCC3)nc(N3CCOCC3)n2)cc1 [Example 54, 1-[4-(4,6-dimorpholin-4-yl-1,3,5-triazin-2-yl)phenyl]-3-(4-hydroxyphenyl)urea] | –
7 | 16.5 nM | 187 nM | 74 nM | 8 nM | 119 nM | CC(O)c1cccc(NC(=O)Nc2ccc(-c3nc(N4CCOCC4)nc(N4CCOCC4)n3)cc2)c1 (stereo not shown) [Example 57, 1-[4-(4,6-dimorpholin-4-yl-1,3,5-triazin-2-yl)phenyl]-3-[3-(1-hydroxyethyl)phenyl]urea] | –
8 | 2.5 nM | – | 85 nM | 13 nM | – | COC(=O)c1ccc(NC(=O)Nc2ccc(-c3nc(N4CCOCC4)nc(N4CCOCC4)n3)cc2)cc1 [Example 58, methyl 4-({[4-(4,6-dimorpholin-4-yl-1,3,5-triazin-2-yl)phenyl]carbamoyl}amino)benzoate] | IC50 [2, 10]: 45 nM; IC50 [5, 11]: 115 nM
9 | 1.8 nM | 92 nM | 36 nM | 5 nM | 83 nM | O=C(Nc1ccccc1)Nc1ccc(-c2nc(OC3CCOCC3)nc(N3CCOCC3)n2)cc1 [Example 60, 1-{4-[4-morpholin-4-yl-6-(tetrahydro-2H-pyran-4-yloxy)-1,3,5-triazin-2-yl]phenyl}-3-phenylurea] | –
10 | 0.76 nM | 23 nM | 32 nM | 9 nM | 48 nM | O=C(Nc1ccc(-c2nc(OC3CCOCC3)nc(N3CCOCC3)n2)cc1)Nc1cccnc1 [Example 61, 1-{4-[4-morpholin-4-yl-6-(tetrahydro-2H-pyran-4-yloxy)-1,3,5-triazin-2-yl]phenyl}-3-pyridin-3-ylurea] | –
11 | 0.68 nM | 34 nM | 24 nM | 2 nM | 27 nM | O=C(Nc1ccc(CO)cc1)Nc1ccc(-c2nc(OC3CCOCC3)nc(N3CCOCC3)n2)cc1 [Example 62, 1-[4-(hydroxymethyl)phenyl]-3-{4-[4-morpholin-4-yl-6-(tetrahydro-2H-pyran-4-yloxy)-1,3,5-triazin-2-yl]phenyl}urea] | –
12 | 1.95 nM | 62 nM | 36 nM | 5 nM | 69 nM | Cc1cc(NC(=O)Nc2ccc(-c3nc(OC4CCOCC4)nc(N4CCOCC4)n3)cc2)ccn1 [Example 63, 1-(2-methylpyridin-4-yl)-3-{4-[4-morpholin-4-yl-6-(tetrahydro-2H-pyran-4-yloxy)-1,3,5-triazin-2-yl]phenyl}urea] | –
13 | 5.05 nM | 267 nM | 83 nM | 15 nM | 151 nM | CC(=O)c1cccc(NC(=O)Nc2ccc(-c3nc(OC4CCOCC4)nc(N4CCOCC4)n3)cc2)c1 [Example 65, 1-(3-acetylphenyl)-3-{4-[4-morpholin-4-yl-6-(tetrahydro-2H-pyran-4-yloxy)-1,3,5-triazin-2-yl]phenyl}urea] | –
14 | 1.65 nM | 66 nM | 30 nM | 7 nM | 59 nM | CN(C)c1ccc(NC(=O)Nc2ccc(-c3nc(OC4CCOCC4)nc(N4CCOCC4)n3)cc2)cc1 [Example 66, 1-[4-(dimethylamino)phenyl]-3-{4-[4-morpholin-4-yl-6-(tetrahydro-2H-pyran-4-yloxy)-1,3,5-triazin-2-yl]phenyl}urea] | –
15 | 1.45 nM | – | 48 nM | 6 nM | – | O=C(Nc1ccc(C(=O)O)cc1)Nc1ccc(-c2nc(N3CCOCC3)nc(N3CCOCC3)n2)cc1 [Example 67, 4-[3-{4-(4,6-dimorpholino-1,3,5-triazin-2-yl)phenyl}ureido]benzoic acid] | IC50 [2, 10]: 28 nM; IC50 [5, 11]: 816 nM
16 | 0.57 nM | – | 7 nM | 0.3 nM | < 3 nM | CN(C)CCNC(=O)c1ccc(NC(=O)Nc2ccc(-c3nc(N4CCOCC4)nc(N4CCOCC4)n3)cc2)cc1 [Example 68, N-(2-(dimethylamino)ethyl)-4-(3-(4-(4,6-dimorpholino-1,3,5-triazin-2-yl)phenyl)ureido)benzamide] | IC50 [2, 10]: 11 nM
17 | 0.85 nM | 13 nM | 8 nM | 0.4 nM | 10 nM | CN1CCN(C(=O)c2ccc(NC(=O)Nc3ccc(-c4nc(N5CCOCC5)nc(N5CCOCC5)n4)cc3)cc2)CC1 [Example 69, 1-(4-(4,6-dimorpholino-1,3,5-triazin-2-yl)phenyl)-3-(4-(4-methylpiperazine-1-carbonyl)phenyl)urea hydrochloride] | –
18 | – | 18.3 nM | 8 nM | 0.4 nM | < 9.8 nM | CN(C)CCN(C)C(=O)c1ccc(NC(=O)Nc2ccc(-c3nc(N4CCOCC4)nc(N4CCOCC4)n3)cc2)cc1 [Example 71, N-(2-(dimethylamino)ethyl)-4-(3-(4-(4,6-dimorpholino-1,3,5-triazin-2-yl)phenyl)ureido)-N-methylbenzamide hydrochloride] | IC50 ([1]; IC50 mTOR): 0.67 nM
19 | 0.85 nM | 13 nM | 19 nM | 2 nM | 1 nM | O=C(Nc1ccc(C(=O)N2CCC(N3CCOCC3)CC2)cc1)Nc1ccc(-c2nc(N3CCOCC3)nc(N3CCOCC3)n2)cc1 [Example 72, 1-(4-(4,6-dimorpholino-1,3,5-triazin-2-yl)phenyl)-3-(4-(4-morpholinopiperidine-1-carbonyl)phenyl)urea] | –

Row | SMILES | IC50 ([1]; read-out: IC50 mTOR) | IC50 [2, 7] | IC50 [3] | IC50 [4] | IC50 [5, 9] | also measured
20 | Cc1ccc(NC(=O)Nc2ccc(-c3nc(N4CCOCC4)nc(N4C5CCC4COC5)n3)cc2)cc1 [Example 41, 1-(4-methylphenyl)-3-{4-[4-morpholin-4-yl-6-(3-oxa-8-azabicyclo[3.2.1]oct-8-yl)-1,3,5-triazin-2-yl]phenyl}urea] | 1.3 nM | 301 nM | 122 nM | 69 nM | 167 nM | IC50 [2, 6]: 301 nM; IC50 ([4]; listed as 676): 69.5 nM; IC50 [5, 8]: 167 nM
21 | N#Cc1ccc(NC(=O)Nc2ccc(-c3nc(N4CCOCC4)nc(N4C5CCC4COC5)n3)cc2)cc1 [Example 42, 1-(4-cyanophenyl)-3-{4-[4-morpholin-4-yl-6-(3-oxa-8-azabicyclo[3.2.1]oct-8-yl)-1,3,5-triazin-2-yl]phenyl}urea] | 3.35 nM | 3600 nM | 290 nM | 86 nM | 345 nM | IC50 [2, 6]: 3600 nM; IC50 ([4]; listed as 677): 86.5 nM
22 | CN1CCN(c2ccc(NC(=O)Nc3ccc(-c4nc(N5CCOCC5)nc(N5C6CCC5COC6)n4)cc3)cc2)CC1 [Example 43, 1-[4-(4-methylpiperazin-1-yl)phenyl]-3-{4-[4-morpholin-4-yl-6-(3-oxa-8-azabicyclo[3.2.1]oct-8-yl)-1,3,5-triazin-2-yl]phenyl}urea] | 0.77 nM and 1.65 nM and 1.17 nM | 40 nM | 35 nM | 28 nM | 35.8 nM | IC50 [2, 6]: 40 nM; IC50 ([3]; listed as 229): 70 nM; IC50 ([3]; listed as 678): 45.3 nM; IC50 ([4]; listed as 229): 19 nM; IC50 ([4]; listed as 678): 21.3 nM; IC50 [5, 8]: 35.8 nM
